Measured values as given in ChEMBL document CHEMBL1201862, “PubChem BioAssay data set” (2004).
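1) Cells in 96-well plates. 2) Compound, 48 h, 5 concentrations. 3) Linear interpolation between surrounding doses. 4) Unreached endpoint = highest concentration. Abbreviation: GI50, concentration required for 50% inhibition of growth.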 Calls of active or inactive are those of the source. No stated cut-off is given here; in the data, active = GI50 up to about 1.1 µM and inactive = higher.

Experiments:
Experiment in all cases: growth of human tumour cells (NCI), 48 h
[1] = test system: MOLT-4
[2] = test system: SNB-75
[3] = test system: ACHN
[4] = test system: NCI-H460
[5] = test system: NCI-H522
[6] = test system: M14
[7] = test system: COLO 205
[8] = test system: U-251
[9] = test system: SW-620
[10] = test system: OVCAR-5
[11] = test system: SF-539
[12] = test system: LOX IMVI
[13] = test system: BT-549
[14] = test system: MDA-MB-435
[15] = test system: SK-MEL-2
[16] = test system: HCT-116
[17] = test system: HOP-92
[18] = test system: MCF7
[19] = test system: IGROV-1
[20] = test system: MDA-MB-231

Row | SMILES | GI50 [1] | GI50 [2] | GI50 [3] | GI50 [4] | GI50 [5] | GI50 [6] | GI50 [7] | GI50 [8] | GI50 [9] | GI50 [10] | GI50 [11] | GI50 [12] | GI50 [13] | GI50 [14] | GI50 [15] | GI50 [16] | GI50 [17] | GI50 [18] | GI50 [19] | GI50 [20]
1 | COc1cc2cc(C(=O)N3CC(CCl)c4c3cc(O)c3ccccc43)[nH]c2c(OC)c1OC (stereo not drawn) | < 0.005 µM (active) | < 0.005 µM (active) | < 0.005 µM (active) | < 0.005 µM (active) | < 0.005 µM (active) | < 0.005 µM (active) | < 0.005 µM (active) | < 0.005 µM (active) | < 0.005 µM (active) | < 0.005 µM (active) | < 0.005 µM (active) | < 0.005 µM (active) | < 0.005 µM (active) | < 0.005 µM (active) | < 0.005 µM (active) | < 0.005 µM (active) |  |  |  | 
2 | CCOC(=O)/C(=C\NCC(O)c1ccccc1)c1nc2ccccc2[nH]1 (stereo not drawn) | 11.8 µM (inactive) | 24.2 µM (inactive) | 11 µM (inactive) | 17.2 µM (inactive) | 17.5 µM (inactive) | 30.4 µM (inactive) | 16.7 µM (inactive) |  | 31.4 µM (inactive) | 26.4 µM (inactive) | 21.1 µM (inactive) | 19.5 µM (inactive) | 29.9 µM (inactive) | 20.9 µM (inactive) |  | 28.6 µM (inactive) | 22.1 µM (inactive) | 18.7 µM (inactive) | 20.1 µM (inactive) | 
3 | CCCCC1=C(C(=O)N2CCOCC2)C2(OCCO2)C1=O | 51.2 µM (inactive) | 43.5 µM (inactive) | 17.4 µM (inactive) | 24.8 µM (inactive) | 15.7 µM (inactive) | 17.8 µM (inactive) | 17.7 µM (inactive) | 31.3 µM (inactive) | 27.3 µM (inactive) | 16.9 µM (inactive) | 23 µM (inactive) | 12.8 µM (inactive) | 23 µM (inactive) | 18.5 µM (inactive) | 25.1 µM (inactive) | 18.5 µM (inactive) | 23.1 µM (inactive) | 44.6 µM (inactive) | 17.9 µM (inactive) | 
4 | CC1=CC(=C(c2ccc(N)c(C)c2)c2ccc(N)c(C)c2)C=CC1=N | 3.65 µM (inactive) | 1.51 µM (inactive) | 8.45 µM (inactive) | 3.61 µM (inactive) | 3.03 µM (inactive) | 4.95 µM (inactive) | 1.93 µM (inactive) | 0.411 µM (active) | 3.8 µM (inactive) | 5.42 µM (inactive) | 2.67 µM (inactive) | 4.2 µM (inactive) |  |  | 2.73 µM (inactive) | 3.37 µM (inactive) | 3.32 µM (inactive) |  | 13.4 µM (inactive) | 
5 | CC(C)(C)[Si](C)(C)OCc1cccc(OCCOc2cccc(CO[Si](C)(C)C(C)(C)C)c2[N+](=O)[O-])c1[N+](=O)[O-] | > 100 µM (inactive) | > 100 µM (inactive) | > 100 µM (inactive) | > 100 µM (inactive) | > 100 µM (inactive) | > 100 µM (inactive) | > 100 µM (inactive) | > 100 µM (inactive) | > 100 µM (inactive) | > 100 µM (inactive) | > 100 µM (inactive) | > 100 µM (inactive) | > 100 µM (inactive) | > 100 µM (inactive) | > 100 µM (inactive) | > 100 µM (inactive) | > 100 µM (inactive) | > 100 µM (inactive) | > 100 µM (inactive) | 
6 | CSC1C=C(C(C)C)CCC1(C)SC (stereo not drawn) | 16.5 µM (inactive) | 17.6 µM (inactive) | 18.7 µM (inactive) | 17.2 µM (inactive) | 16.3 µM (inactive) | 16.9 µM (inactive) | 16.2 µM (inactive) | 19.5 µM (inactive) | 19.9 µM (inactive) | 16.2 µM (inactive) | 18.7 µM (inactive) | 18.3 µM (inactive) |  |  | 17.7 µM (inactive) | 19.2 µM (inactive) | 16.2 µM (inactive) |  | 20.9 µM (inactive) | 
7 | Cc1ccc(S(=O)(=O)N2CCN(S(=O)(=O)c3ccc(C)cc3)Cc3ccccc3C2)cc1 | > 100 µM (inactive) |  | 36.9 µM (inactive) | > 100 µM (inactive) | 21.6 µM (inactive) | 33 µM (inactive) | > 100 µM (inactive) |  | > 100 µM (inactive) | > 10 µM (inactive) | > 100 µM (inactive) | > 100 µM (inactive) | 64.9 µM (inactive) | 34.3 µM (inactive) | > 100 µM (inactive) | > 100 µM (inactive) |  | 50.5 µM (inactive) | > 100 µM (inactive) | > 100 µM (inactive)
8 | C1=CC2(C=CC13O[C@H](C1CCCCC1)[C@@H](C1CCCCC1)O3)O[C@H](C1CCCCC1)[C@@H](C1CCCCC1)O2 | > 50 µM (inactive) | > 50 µM (inactive) | > 50 µM (inactive) | > 50 µM (inactive) |  | > 50 µM (inactive) | > 50 µM (inactive) | > 50 µM (inactive) | > 50 µM (inactive) | > 50 µM (inactive) | > 50 µM (inactive) | > 50 µM (inactive) | > 50 µM (inactive) | > 50 µM (inactive) | > 50 µM (inactive) | > 50 µM (inactive) |  | > 50 µM (inactive) | > 50 µM (inactive) | > 50 µM (inactive)
